Measurements: patent US20250327794A1, “FLUOROMETRIC METHODS FOR DETECTION OF ALLERGIC SENSITIVITY TO ENVIRONMENTAL, FOODSTUFF, AND MEDICAMENT STIMULANTS” (CELL SCIENCE SYSTEMS CORPORATION, priority 2022, published 2025)

How the values were obtained:
[1] = system: Basophils (CD63+/CD203c+); experiment: Basophil activation by COVID-19 vaccines and vaccine components, blood of a hypersensitive subject; format: cell-based, human; details: subject with known allergic reaction to mRNA-1273 booster
[2] = system: Neutrophils (CD11b+); format: cell-based, human

Compound: 2,2-dimyristoyl-rac-glycero3-methoxypolyethylene glycol-2000 [PEG2000-DMG]
- basophil activation and gross granulocyte activation in response to vaccine components [1]: marked increase
- percent neutrophil activation versus control, vaccine components [2]: higher percent neutrophil activation versus control

Compound: 2-[(polyethylene glycol)-2000]-N,N-ditetradecylacetamide [ALC0159]
- basophil activation and gross granulocyte activation in response to vaccine components [1]: marked increase
- percent neutrophil activation versus control, vaccine components [2]: higher percent neutrophil activation versus control

Compound: 2-hydroxypropyl-β-cyclodextrin [HBCD]
- percent neutrophil activation versus control, vaccine components [2]: higher percent neutrophil activation versus control

Compound: CCCCCCCCC(CCCCCC)C(=O)OCCCCCCN(CCCCO)CCCCCCOC(=O)C(CCCCCC)CCCCCCCC (stereo not shown) [ALC0315]
- basophil activation and gross granulocyte activation in response to vaccine components [1]: marked increase
- percent neutrophil activation versus control, vaccine components [2]: higher percent neutrophil activation versus control

Compound: CCCCCCCCCCCCCCCCCC(=O)OC[C@H](COP(=O)([O-])OCC[N+](C)(C)C)OC(=O)CCCCCCCCCCCCCCCCC [DSPC, 1,2-diastearoyl-sn-glycero-3-phosphocholine]
- percent neutrophil activation versus control, vaccine components [2]: did not

Compound: CCCCCCCCCCCOC(=O)CCCCCN(CCO)CCCCCCCC(=O)OC(CCCCCCCC)CCCCCCCC [SM102]
- basophil activation and gross granulocyte activation in response to vaccine components [1]: marked increase
- percent neutrophil activation versus control, vaccine components [2]: higher percent neutrophil activation versus control

Compound: CCO [ethanol]
- percent neutrophil activation versus control, vaccine components [2]: did not

Compound: polysorbate-80 [PS80]
- basophil activation and gross granulocyte activation in response to vaccine components [1]: marked increase
- percent neutrophil activation versus control, vaccine components [2]: higher percent neutrophil activation versus control
